Experimental data: patent US11028061B2, “Modulators of myocyte lipid accumulation and insulin resistance and methods of use thereof” (Sanford Burnham Prebys Medical Discovery Institute, priority 2015, dated 2021)

Tests used:
[1] = Intracellular lipolysis rates; assay type: cell-based; conditions: data not shown
SCD-1 = SCD-1 (Homo sapiens, UniProt O00767); experiment: Direct inhibition of SCD-1 activity; assay type: biochemical; conditions: data not shown
DGAT1/2 = experiment: Direct inhibition of DGAT1/2 activity; assay type: biochemical; conditions: data not shown
[2] = system: insulin receptor substrate 1 (IRS-1); experiment: Western blot of IRS-1 phosphorylation; assay type: cell-based, human; conditions: 24 hours
Procedure: (§1) FIGS. 3A, B, C, E and F show SBI-477 stimulation of glucose uptake and activates insulin signaling in the absence of insulin. Human skeletal myotubes were incubated with SBI-477 at the indicated concentration for 24 hours and then treated with or without insulin (100 nM) for 30 minutes. Glucose ([3H]-2-deoxyglucose, 2-DG) uptake (FIG. 3A) and glycogen synthesis rates (FIGS. 3B and 3C) were measured (n=5) as described in Methods. *p<0.05 vs. Vehicle, no insulin, †p<0.05 vs. Vehicle/insulin by two-way ANOVA with Tukey's post hoc test. (FIG. 3E) Western blot analysis of human myotubes treated with SBI-477 for 24 hours was performed to determine the effect on steps of the insulin signaling pathway using specific Akt and IRS-1 phosphorylation sites as endpoints. Insulin treatment (100 nM) for 30 minutes was used as positive control. (FIG. 3F) Quantitation of the western blot data in […] is shown (n=5). *p<0.05 or **p<0.01 vs. Vehicle by one-way ANOVA with Bonferroni post hoc test. The data represent mean±SD.
(§2) Cells were lysed in the RIPA buffer containing 1% NP-40, 5 mM Na4P2O7, 1 mM EDTA, 20 mM NaF, 2 mM Na3VO4, 1× cOmplete™ protease inhibitor (Roche) and 1 mM phenylmethylsulfonyl fluoride. […] Protein quantification was performed using FluorChemQ (Alpha Innotech) and normalized to […]-actin or total protein where indicated.

Akt = experiment: Western blot of Akt phosphorylation; assay type: cell-based, human; conditions: 24 hours
Procedure: as §1, §2

S6K = experiment: Western blot of pS6K (T389); assay type: cell-based, human; conditions: 24 hours
Procedure: (§3) FIGS. 3D and G show SBI-477-mediated increase in glucose uptake in oleate-loaded skeletal myotubes (FIG. 3D) SBI-477 increases glucose uptake in oleate-loaded human skeletal myotubes. Basal and insulin-stimulated [3H]2-DG uptake was measured in human skeletal myotubes following treatment with SBI-477 for 24 hours in the presence of 100 μM oleate or BSA as a control. *p<0.05 vs. vehicle, †p<0.05 vs. vehicle/insulin by one-way ANOVA with Bonferroni post hoc test. FIG. 3G—Western blot analysis (left) of human myotubes treated with SBI-477 for 24 hours was performed to determine activation of S6K and AMPK using the indicated phospho-specific antibodies. Insulin treatment (100 nM) for 30 minutes was used as positive control. Quantitation (right) of the Western blot data is shown (n=4-5). *p<0.05 vs. Vehicle by one-way ANOVA with Bonferroni post hoc test. The data represent mean±SD.
(§4) Cells were lysed in the RIPA buffer containing 1% NP-40, 5 mM Na4P2O7, 1 mM EDTA, 20 mM NaF, 2 mM Na3VO4, 1× cOmplete™ protease inhibitor (Roche) and 1 mM phenylmethylsulfonyl fluoride. Whole cell lysates were subjected to SDS-PAGE and transferred to a nitrocellulose membrane. The blots were hybridized with specific antibodies and developed with enhanced chemiluminescence kit (Pierce). […] Protein quantification was performed using FluorChemQ (Alpha Innotech) and normalized to […]-actin or total protein where indicated.

AMPK = experiment: Western blot of AMPK activation; assay type: cell-based, human; conditions: 24 hours
Procedure: as §3, §4

TXNIP = TXNIP expression by quantitative RT-PCR in human myotubes; assay type: cell-based; conditions: 24 hours
Procedure: (§5) FIGS. 4A-C show downregulation of TXNIP and ARRDC4 expression by SBI-477. (FIG. 4A) TXNIP and ARRDC4 mRNA levels as determined by quantitative RT-PCR in human myotubes treated with SBI-477 (10 μM) or DGAT1 inhibitor (DGATi, […]) for 24 hours in the absence or presence of 100 μM oleate (n=4). Expression is shown relative to vehicle/BSA treatment. (FIG. 4B) TXNIP gene expression following exposure to a dose range of SBI-477 for 24 hours (n=4). (FIG. 4C) Left, Effect of SBI-477 on TXNIP protein levels as determined by western blot analysis by SBI-477. Right, Quantitation of the TXNIP western blot data is shown (n=5). *p<0.05 vs. Vehicle/BSA control, †p<0.05 vs. Vehicle/oleate by one-way ANOVA with Bonferroni post hoc test. The data are shown as mean±SD.
(§6) Total RNA was isolated using RNeasy Mini Kit (Qiagen) according to the manufacturer's instructions. cDNA was synthesized using the Affinity Script cDNA Synthesis Kit (Stratagene) with 0.5 μg of total RNA. PCR reactions were performed in triplicate […] Roche LightCycler® 480 Instrument II) with specific primers for each gene.

ARRDC4 = ARRDC4 expression by quantitative RT-PCR in human myotubes; assay type: cell-based; conditions: 24 hours
Procedure: as §5, §6

MondoA = molecular target: T1, MondoA (Homo sapiens, UniProt Q9HAP2); experiment: ChIP of MondoA occupation on TXNIP and ARRDC4 promoter ChoREs; assay type: cell-based; conditions: human skeletal myotubes
T1 construct: Proteins were immunoprecipitated by using anti-MondoA (Bethyl Laboratories; catalog number A303-195A); endogenous in cells; host or cells: differentiated primary human skeletal myotubes
T1 sequence (Q9HAP2 2-919 limits assumed): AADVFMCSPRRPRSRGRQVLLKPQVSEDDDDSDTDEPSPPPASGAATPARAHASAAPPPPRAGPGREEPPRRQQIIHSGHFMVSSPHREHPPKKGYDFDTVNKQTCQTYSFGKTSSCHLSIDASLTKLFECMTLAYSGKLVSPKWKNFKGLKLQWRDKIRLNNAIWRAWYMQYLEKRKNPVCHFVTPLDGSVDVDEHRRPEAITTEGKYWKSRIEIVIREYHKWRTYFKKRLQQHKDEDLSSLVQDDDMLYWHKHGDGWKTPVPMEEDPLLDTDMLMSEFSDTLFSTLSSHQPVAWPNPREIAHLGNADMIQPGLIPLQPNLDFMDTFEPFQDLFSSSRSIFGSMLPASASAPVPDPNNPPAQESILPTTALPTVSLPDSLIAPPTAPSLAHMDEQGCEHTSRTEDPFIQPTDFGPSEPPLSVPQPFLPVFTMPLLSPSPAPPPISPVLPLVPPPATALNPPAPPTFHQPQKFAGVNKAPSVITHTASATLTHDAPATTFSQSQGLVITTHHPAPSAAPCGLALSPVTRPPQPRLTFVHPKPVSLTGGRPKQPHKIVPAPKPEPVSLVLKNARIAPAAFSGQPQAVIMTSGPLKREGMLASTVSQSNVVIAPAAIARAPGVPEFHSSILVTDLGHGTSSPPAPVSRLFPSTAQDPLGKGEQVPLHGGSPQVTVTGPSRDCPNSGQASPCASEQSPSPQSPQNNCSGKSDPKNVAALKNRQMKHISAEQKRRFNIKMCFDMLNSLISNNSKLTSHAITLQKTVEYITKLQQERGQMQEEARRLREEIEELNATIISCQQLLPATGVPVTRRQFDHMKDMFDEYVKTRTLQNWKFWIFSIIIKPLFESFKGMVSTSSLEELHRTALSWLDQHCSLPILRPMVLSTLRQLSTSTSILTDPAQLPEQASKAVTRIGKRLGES
Procedure: ChIP assays were performed as previously described (Gan, et al., Genes Dev., 2011, 25(24):2619-2630). Briefly, differentiated human skeletal myotubes were cross-linked with 1% formaldehyde for 10 minutes at room temperature, and glycine was added to stop the cross-linking reaction. Cells were harvested and lysed. For chromatin fragmentation, sonication was performed using a Bioruptor (Diagenode). Proteins were immunoprecipitated by using anti-MondoA (Bethyl Laboratories; catalog number A303-195A) or IgG control (Sigma; catalog number 15006) overnight at 4° C. DNA fragments were purified using a QIAquick PCR purification kit (Qiagen) and quantified by a LightCycler® 480 Instrument II (Roche) with the specific primers listed in Table 1.

SCD-1, sequence (O00767 whole entry, species assumed): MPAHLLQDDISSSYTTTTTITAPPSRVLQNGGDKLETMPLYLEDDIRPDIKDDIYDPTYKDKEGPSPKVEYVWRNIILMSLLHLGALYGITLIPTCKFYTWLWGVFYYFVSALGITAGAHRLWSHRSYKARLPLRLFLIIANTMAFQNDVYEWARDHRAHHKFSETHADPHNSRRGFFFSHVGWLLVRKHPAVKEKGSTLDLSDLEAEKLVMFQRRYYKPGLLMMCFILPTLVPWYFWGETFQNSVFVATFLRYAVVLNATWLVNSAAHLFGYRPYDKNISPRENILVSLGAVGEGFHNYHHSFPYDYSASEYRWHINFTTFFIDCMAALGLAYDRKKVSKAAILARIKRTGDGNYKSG

COc1ccc(-c2csc(NC(=O)c3ccc(OCC(=O)N4CCOCC4)c(OC)c3)n2)cc1 [Cpd. 7, 3-methoxy-N-(4-(4-methoxyphenyl)thiazol-2-yl)-4-(2-morpholino-2-oxoethoxy)benzamide]
Intracellular lipolysis rates [1]: not due to blocking cellular fatty acid uptake or increasing intracellular lipolysis rates
Direct inhibition of SCD-1 activity (SCD-1): not found that SBI-477 directly inhibits
Direct inhibition of DGAT1/2 activity (DGAT1/2): not found that SBI-477 directly inhibits
IRS-1 phosphorylation at serine sites 636/639 [2]: decreased
Tyrosine phosphorylation of IRS-1 ([2]; absence of insulin): increased
Phosphorylation of Akt (Akt): also increased
Levels of pS6K (T389) (S6K): reduced
AMPK activation (AMPK): activation of AMPK
TXNIP expression (TXNIP): robust, dose-dependent downregulation
ARRDC4 expression (ARRDC4): robust, dose-dependent downregulation
Occupation by MondoA of ChoREs in TXNIP and ARRDC4 promoter regions (MondoA): inhibited
